≈ marks a conversion by molar mass, not a printed value.
Legend:
[1] = target: Glutamate receptor ionotropic, NMDA 2B (Rattus norvegicus, UniProt Q00960); test: Displacement of [3H]CP-101606 from NR2B in rat forebrain P2 membrane; format: cell membranes, Brain
[2] = target: Voltage-gated inwardly rectifying potassium channel KCNH2 (Homo sapiens, UniProt Q12809); test: Displacement of [3H]dofetilide from human HERG expressed in HEK293 cells; format: cell-based
[3] = Solubility at pH 6.5; format: physicochemical; details: buffer
[4] = tested on: Mus musculus; test: Antiallodynic activity in po dosed mouse partial sciatic nerve ligation model; format: functional
[5] = Metabolic stability assessed Half life in human liver microsomes; format: ADME, Microsome
[6] = Bioavailability in mouse; format: ADME, organism-based; details: in vivo
[7] = target: hERG (KCNH2) (Homo sapiens, UniProt Q12809); test: Inhibition of HERG current at 30 uM
Sequence of hERG (KCNH2) (Q12809 whole entry): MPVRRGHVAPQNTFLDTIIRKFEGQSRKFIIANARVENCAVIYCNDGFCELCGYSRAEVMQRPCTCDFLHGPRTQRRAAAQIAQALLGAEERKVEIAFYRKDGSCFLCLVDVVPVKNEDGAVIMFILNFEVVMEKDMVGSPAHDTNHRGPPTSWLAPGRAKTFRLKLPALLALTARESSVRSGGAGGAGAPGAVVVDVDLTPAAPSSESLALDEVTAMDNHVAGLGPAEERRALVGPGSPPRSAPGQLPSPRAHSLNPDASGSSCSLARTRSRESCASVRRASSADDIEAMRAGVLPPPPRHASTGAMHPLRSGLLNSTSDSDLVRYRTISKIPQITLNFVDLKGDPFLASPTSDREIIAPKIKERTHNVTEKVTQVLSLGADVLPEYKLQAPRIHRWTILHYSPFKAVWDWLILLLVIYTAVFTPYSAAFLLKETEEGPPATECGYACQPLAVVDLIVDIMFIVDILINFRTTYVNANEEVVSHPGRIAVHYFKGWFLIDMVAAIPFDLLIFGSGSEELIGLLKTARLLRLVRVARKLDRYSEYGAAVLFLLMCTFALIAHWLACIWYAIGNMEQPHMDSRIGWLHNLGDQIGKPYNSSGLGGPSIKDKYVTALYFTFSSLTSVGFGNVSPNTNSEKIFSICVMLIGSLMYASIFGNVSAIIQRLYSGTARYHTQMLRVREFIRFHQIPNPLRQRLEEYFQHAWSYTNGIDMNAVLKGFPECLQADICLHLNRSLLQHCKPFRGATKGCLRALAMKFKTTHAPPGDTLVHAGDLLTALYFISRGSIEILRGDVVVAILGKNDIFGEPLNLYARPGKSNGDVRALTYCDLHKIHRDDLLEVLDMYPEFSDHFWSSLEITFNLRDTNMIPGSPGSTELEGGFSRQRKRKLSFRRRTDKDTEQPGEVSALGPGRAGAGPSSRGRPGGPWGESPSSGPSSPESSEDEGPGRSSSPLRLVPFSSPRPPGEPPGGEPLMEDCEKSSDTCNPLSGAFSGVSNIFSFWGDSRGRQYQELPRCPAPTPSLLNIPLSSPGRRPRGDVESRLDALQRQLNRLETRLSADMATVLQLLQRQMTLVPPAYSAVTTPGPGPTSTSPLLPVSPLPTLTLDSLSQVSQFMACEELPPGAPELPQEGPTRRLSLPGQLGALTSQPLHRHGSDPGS

Sequence of Voltage-gated inwardly rectifying potassium channel KCNH2 (Q12809 whole entry): as above
Sequence of Glutamate receptor ionotropic, NMDA 2B (Q00960 whole entry): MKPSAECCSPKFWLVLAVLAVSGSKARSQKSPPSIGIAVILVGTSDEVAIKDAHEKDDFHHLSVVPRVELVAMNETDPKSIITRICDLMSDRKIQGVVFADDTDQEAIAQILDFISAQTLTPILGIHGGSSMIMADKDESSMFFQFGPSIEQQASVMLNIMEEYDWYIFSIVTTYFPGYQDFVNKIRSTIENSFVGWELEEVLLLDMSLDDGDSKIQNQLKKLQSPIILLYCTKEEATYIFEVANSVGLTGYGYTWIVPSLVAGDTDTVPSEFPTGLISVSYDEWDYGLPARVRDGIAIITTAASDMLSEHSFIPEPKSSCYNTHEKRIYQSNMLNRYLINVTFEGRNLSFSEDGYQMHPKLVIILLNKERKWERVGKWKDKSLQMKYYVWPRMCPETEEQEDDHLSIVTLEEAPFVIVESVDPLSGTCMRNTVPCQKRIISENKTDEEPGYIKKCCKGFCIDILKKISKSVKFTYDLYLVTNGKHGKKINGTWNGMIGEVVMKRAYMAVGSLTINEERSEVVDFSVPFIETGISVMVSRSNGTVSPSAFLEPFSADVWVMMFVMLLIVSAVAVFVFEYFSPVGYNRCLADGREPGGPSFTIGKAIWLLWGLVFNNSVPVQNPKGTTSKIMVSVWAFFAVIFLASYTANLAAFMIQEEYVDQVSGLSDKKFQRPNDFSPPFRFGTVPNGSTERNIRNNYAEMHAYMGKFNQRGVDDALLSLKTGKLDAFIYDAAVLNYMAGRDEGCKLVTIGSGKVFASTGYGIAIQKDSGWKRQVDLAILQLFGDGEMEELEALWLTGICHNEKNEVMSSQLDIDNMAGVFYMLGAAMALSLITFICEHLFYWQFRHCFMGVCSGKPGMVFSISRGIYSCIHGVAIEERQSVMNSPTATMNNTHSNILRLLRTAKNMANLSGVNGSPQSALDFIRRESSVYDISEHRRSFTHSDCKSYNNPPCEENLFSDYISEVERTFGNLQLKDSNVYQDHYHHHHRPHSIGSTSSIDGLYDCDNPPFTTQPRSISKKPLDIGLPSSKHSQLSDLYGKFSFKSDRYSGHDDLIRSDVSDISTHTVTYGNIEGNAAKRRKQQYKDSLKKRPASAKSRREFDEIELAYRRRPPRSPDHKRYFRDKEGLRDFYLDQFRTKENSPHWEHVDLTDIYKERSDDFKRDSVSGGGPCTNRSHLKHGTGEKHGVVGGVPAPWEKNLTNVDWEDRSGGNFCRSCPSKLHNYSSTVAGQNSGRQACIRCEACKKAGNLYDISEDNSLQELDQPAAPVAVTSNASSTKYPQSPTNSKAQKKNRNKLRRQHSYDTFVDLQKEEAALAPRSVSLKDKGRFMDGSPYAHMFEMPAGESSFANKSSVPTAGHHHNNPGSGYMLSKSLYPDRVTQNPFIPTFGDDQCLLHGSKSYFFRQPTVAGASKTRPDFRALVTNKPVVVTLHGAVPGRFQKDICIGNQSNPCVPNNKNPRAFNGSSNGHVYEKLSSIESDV

| IC50 [1] | SMILES | IC50 [2] | further results |
| --- | --- | --- | --- |
| 10 nM | O=C(CCc1ccccc1)N[C@H]1CC[C@](O)(c2ccc(O)cn2)CC1 | > 30000 nM | solubility [3]: 130 µg/mL (≈ 382 µM); MED [4]: 10 mg/kg; half-life [5]: > 1 h; bioavailability [6]: 27%; inhibition at 30 µM [7]: 9% |
| 722 nM | Cc1cc(O)ccc1[C@H]1CC[C@H](NC(=O)CCc2ccccc2)CC1 |  |  |
| 116 nM | Cc1cc([C@]2(O)CC[C@@H](NC(=O)CCc3ccccc3)CC2)ncc1O |  |  |
| 59 nM | O=C(CCc1ccccc1)N[C@H]1CC[C@H](c2ccc(O)c(F)c2)CC1 |  | IC50 ([2]; hek293): > 10000 nM |
| 13 nM | O=C(CCc1ccccc1)N[C@H]1CC[C@](O)(c2ccc(O)c(F)c2)CC1 |  | solubility [3]: 17 µg/mL (≈ 47.6 µM) |
| 856 nM | O=C(CCc1ccccn1)N[C@H]1CC[C@H](c2ccc(O)cc2)CC1 | > 30000 nM |  |
| 30 nM | O=C(CCc1ccccc1)N[C@H]1CC[C@H](c2ccc(O)cc2)CC1 |  | solubility [3]: < 5 µg/mL |
| 25 nM | Cc1cc(O)ccc1[C@]1(O)CC[C@@H](NC(=O)CCc2ccccc2)CC1 |  | IC50 ([2]; hek293): > 10000 nM |
| 19 nM | O=C(CCc1ccccc1)N[C@H]1CC[C@](O)(c2ccc(O)cc2)CC1 | > 30000 nM | solubility [3]: 20 µg/mL (≈ 58.9 µM) |

More lines, now with the values behind:

| SMILES | IC50 [1] | IC50 [2] | further results |
| --- | --- | --- | --- |
| O=C(N[C@H]1CC[C@H](c2ccc(O)cc2)CC1)C1Cc2ccccc2CN1 (stereo partly drawn) | > 1000 nM | > 30000 nM | solubility [3]: 18 µg/mL (≈ 51.4 µM) |
| O=C(CCc1ccccc1)N[C@H]1CC[C@](O)(c2ccc3nc[nH]c3c2)CC1 | 4960 nM |  |  |
| O=C(CCc1cccnc1)N[C@H]1CC[C@H](c2ccc(O)cc2)CC1 | > 1000 nM |  |  |
| O=C(CCc1ccccc1)N[C@H]1CC[C@](O)(c2c[nH]c3nc(=O)oc-3c2)CC1 | 85 nM |  |  |
| Cc1cnc(CCC(=O)N[C@H]2CC[C@H](c3ccc(O)cc3)CC2)s1 | 96 nM | > 10000 nM |  |
| O=C1CC(Cc2ccccc2)CCN1CC(O)c1ccc(O)cc1 (stereo not drawn) |  | > 30000 nM |  |
| CN(C)C(Cc1ccccc1)C(=O)N[C@H]1CC[C@H](c2ccc(O)cc2)CC1 (stereo partly drawn) | > 1000 nM |  |  |
| Cn1c(CCC(=O)N[C@H]2CC[C@H](c3ccc(O)cc3)CC2)nc2ccccc21 | > 1000 nM |  |  |
| O=C(CCc1ccccc1)N[C@H]1CC[C@](O)(c2c[nH]cn2)CC1 | > 5000 nM |  |  |
| Nc1ccc([C@]2(O)CC[C@@H](NC(=O)CCc3ccccc3)CC2)cn1 | > 5000 nM |  |  |
| Cc1cc([C@]2(O)CC[C@@H](NC(=O)CCc3ccccc3)CC2)ccc1O | 189 nM |  | IC50 ([2]; hek293): > 10000 nM; solubility [3]: < 5 µg/mL |
| CS(=O)(=O)Nc1ccc([C@]2(O)CC[C@@H](NC(=O)CCc3ccccc3)CC2)cn1 | > 5000 nM |  |  |
| C[C@@H]([C@@H](O)c1ccc(O)cc1)N1CCC(Cc2ccccc2)CC1 [(S)-IFENPRODIL] |  | < 1000 nM |  |
| O=C1CCc2cc([C@@H](O)CN3CCC(O)(c4cccc(F)c4)CC3)ccc2N1 |  | 1100 nM |  |
| Cc1cc([C@H]2CC[C@H](NC(=O)CCc3ccccc3)CC2)ccc1O | > 5000 nM |  |  |
| O=C(CCc1ccccc1)N[C@H]1CC[C@](O)(c2cn[nH]c2)CC1 | 2440 nM |  |  |
